Results from patent US20040214850A1, “1-glyoxylamide indolizines for treating cancer” (Synta Pharmaceuticals Corp., priority 2001, published 2004).

Key:
[1] = tested on: MDA435 (human breast cancer); experiment: In vitro anti-cancer activity, MTS growth inhibition assay, MDA-435; format: cell-based; conditions: MDA-435 cells, 72 hours
Procedure: (§1) The in vitro activity of the compounds was determined in the following seven human cancer cell lines. MDA435 (human breast cancer), MIP101 (human colon cancer), HL-60 (human myeloid leukemia), U937 (human leukemia), p388 (murine leukemia), DU-145 (human prostate cancer), MES-SA (human uterine sarcoma) were obtained from ATCC (American Type of Culture Collection).
(§2) The cell lines were maintained in RPMI1640 (GIBCO) supplemented with 10% FCS, 100 units/ml penicillin, 100 ug/ml streptomycin, and 2 mM L-glutamine. The cells were split every third day and diluted to a concentration of 2×10^5 cells/ml one day before experiment. All experiments were performed on exponentially growing cell culture. Cell densities were 2.5×10^4 cells/ml in all experiment.
(§3) A stock solution of Compound (1) and a stock solution of Taxol (positive control) were prepared by dissolving the compound at a concentration of 1 mM in 100% DMSO. Final concentrations were obtained by diluting the stock solution directly into the tissue culture medium. Cells were incubated with varying concentrations of the compounds for 72 hours and the IC50 was determined by MTS (i.e. 3-(4,5,-dimethylthiazol-2-yl)-2,5-diphenyl tetrazolium bromide) assay. IC50 stands for the concentration of compound required to inhibit 50% tumor cell growth.

[2] = tested on: MIP101 (human colon cancer); experiment: In vitro anti-cancer activity, MTS growth inhibition assay, MIP-101; format: cell-based; conditions: MIP-101 cells, 72 hours
Procedure: as §1, §2, §3

U937 (human leukemia) = experiment: In vitro anti-cancer activity, MTS growth inhibition assay, U-937; format: cell-based; conditions: U-937 cells, 72 hours
Procedure: as §1, §2, §3

[3] = tested on: DU-145 (human prostate cancer); experiment: In vitro anti-cancer activity, MTS growth inhibition assay, DU-145; format: cell-based; conditions: DU-145 cells, 72 hours, MTS assay (Table 1), read-out: IC50
Procedure: as §1, §2, §3
The protocol described in Examples 9-10 was used to assay inhibition by Compounds (20) (21) (24) and (28) on the growth of cancer cell lines MES-SA (human uterine sarcoma cell line) and DU-145 (human prostate cancer).

[4] = tested on: MES-SA/DX5 (multi-drug resistant human uterine sarcoma cell line); experiment: In vitro activity against multi-drug resistant cell line MES-SA/DX5; format: cell-based; conditions: MES-SA/Dx5, MES-SA/DX-5 MDR cells (Table 2)
Procedure: as §2, §3
In vitro activity was determined in two MDR (Multi Drug Resistant) human cancer cell lines. HL-60/TX1000 was isolated in vitro by subculturing HL-60 in progressively higher concentration of Taxol. HL-60/TX1000 cells over-express mdr-1 mRNA and p-glycoprotein, as determined by western blot and immunofluorescence labeling with antiPGP antibodies. The cell is cross-resistant to Taxol, Vincristine, Adriamycin, Etoposide and Doxorubicin. MES-SA/Dx5 was established in the presence of increasing concentrations of Doxorubicin. […] MES-SA/Dx5 was purchased from ATCC.
The procedure for culturing the cells and assaying cancer cell growth inhibition were as described in Example 3.
The protocol described in Examples 9-10 was used to assay inhibition by Compounds (2)-(8) on the growth of the multidrug resistant cancer cell line MES-SA/DX5, which is a MDR uterine sarcoma cell line.

[5] = tested on: human breast MDA435 tumors; experiment: Tumor growth inhibition assay, human breast tumor (MDA435) xenograft in nude mice; format: in vivo, nude mice (CD-1 nu/nu)
Procedure: The in vivo anti-cancer efficacy of Compound (1) was assessed in tumor bearing mice using a tumor growth inhibition assay. Human breast tumor (MDA-435) cells were implanted by injection of a tumor cell suspension subcutaneously in the flank of a nude mouse. Treatment of the tumor with an experimental compound began after the tumor had been established (volume was approximately 100 mm^3). The animal then began a multiple injection schedule where the compound was administered orally. Tumors were measured two times a week. During the course of this assay, animals were monitored daily for signs of toxicity including body weight loss.
A supplemented media was prepared from 50% DMEM/Dulbecco Modified Eagle Medium (High Glucose), 50% RPMI 1640, 10% FBS/Fetal Bovine Serum (Hybridoma Tested; Sterile Filtered), 1% L-Glutamine, 1% Penicillin-Streptomycin, 1% MEM Sodium Pyruvate, 1% MEM Non-Essential Amino Acids. […]
The flask was washed with 10 ml of sterile room temperature phosphate buffered saline (PBS). […] The supernatant was aspirated and the cell pellet was resuspended in 10 ml of supplemented media and the cells were counted. […]
The above procedure for trypsinizing and centrifuging the cells were followed. The supernatant was aspirated and the cell pellet was resuspended in 10 ml of sterile PBS and the cells were counted. […]

[6] = tested on: seven cancer cell lines from different tissue types; experiment: Text summary: in vitro activity over the seven cancer cell lines of Table 1; format: cell-based; conditions: range over the seven cell lines of Table 1; read-out: IC50 against seven cancer cell lines
Procedure: as §1, §2, §3

`Cc1cc(NC(=O)C(=O)c2cc(Cc3ccc(C#N)cc3)n3ccccc23)sn1` [Compound (1), 2-(3-(4-cyanobenzyl)-indolizin-1-yl)-N-(3-methyl-isothiazol-5-yl)-2-oxo-acetamide] was tested, and the IC50 [1] was 50 nM, the IC50 [2] was 20 nM and the IC50 (U937 (human leukemia)) was 50 nM. The IC50 [3] was 50 nM, the IC50 [4] was 50 nM and the tumor growth inhibition ([5]; MDA435 in nude mice, 25 mg/kg and 50 mg/kg orally, 3 times a week for 3 weeks, FIG. 1) was “significantly inhibits tumor growth”. For the same compound, the “reduction of the volume of tumors” value ([5]; MDA435 tumors in nude mice, administered orally) was “greater than 50%” and the IC50 [6] was 10 to 50 nM.
